Counter-ions that a name gives are not always drawn.
How the values were obtained:
[1] = test system: individual patient; test: SPAS abuse potential test (liking score vs placebo or comparator); details: for liking score difference vs placebo: person
Description: Single-patient drug kits can be designed to test for “liking scores,” “abuse potential scores,” and patient's desire to re-use the test article compared to placebo and positive controls.
In this example, the abuse potential of the narcotic analgesic codeine is tested. A single-patient trial is conducted in a patient for whom treatment with codeine is deemed appropriate. The patient receives a SPAS test kit containing codeine, an alternative drug, e.g., ibuprofen and a questionnaire designed to elicit the liking score, desirability to re-use test article and abuse potential of the patient to codeine.
In another example, in follow-up to the test above, the clinician compares diazepam to secobarbital in the same patient.

[2] = test system: previously tested similar patients; test: follow-up of previously tested similar patients in the database (addiction / smoking)
[3] = test system: hypertensive person; test: double-blind single-patient trial of verapamil as therapeutic alternative to propranolol; assay type: in vivo, human; details: for mean systolic blood pressure increases: end of six week trial, verapamil SR 240 mg vs propranolol SR 180 mg once daily, statistically insignificant; for mean systolic blood pressure increases / mean diastolic pressure: little difference between drugs; for mean diastolic pressure: throughout six week trial
Description: In this example, the validity of using a sustained release formulation of verapamil 240 mg once daily as a therapeutic alternative to sustained release propranolol 180 mg once daily in a hypertensive person is shown. The trial during which the two medications are randomly administered in a double-blind manner is six weeks. The questionnaire used is set up in a manner similar to that described in above examples except that the questions elicit information related to the disease of hypertension. Blood pressure and adverse event reports are taken daily by the patient. […] Sleepiness is reported at equal rates for both drugs. All values are statistically insignificant and the therapeutic alternative selection is objectively validated.

[4] = test system: patient with perennial allergic rhinitis; details: for incidence of sedation: day 4 of treatment
[5] = test system: hyperactive child (Minimum Brain Dysfunction or Attention Deficit Disorder); test: SPAS single-patient drug trial of methylphenidate vs placebo
Description: The usefulness of methylphenidate (Ritalin) treatment in a hyperactive child (Minimum Brain Dysfunction or Attention Deficit Disorder) is evaluated.
Technology: Consists of instructions, “calendar” packaging for drug and a substantially identical looking placebo to assure appropriate dosing and monitoring of compliance, questionnaires and assessment forms and instructions. […] Results are mailed to the physician and, in this case, parent for use in evaluating the usefulness of the therapy. The physician and parent are contacted, e.g., every three months to provide data on therapies utilized, and perceived outcome, until the condition is resolved.
The questionnaire portion of the kit includes an initial consent form for the parent or guardian to complete. The questionnaire also provides background information on the study and possible side effects associated with the medication. Also included therein is a form for providing relevant patient and family histories. More importantly, the questionnaire, in this case includes a portion for the weekly input by parents/guardians and school observers for answers to questions relating to the drug evaluation. Physician questionnaires are similarly arranged.
The trial calls for 40 mg to be given daily as 10 mg four times daily compared to identical appearing placebo which is also given four times daily. After completing the trial and questionnaire, the data is processed to statistically determine the results.

[6] = test system: patients with the same disorder (hyperactive child); test: pooled SPAS data and follow-up of patients continued on methylphenidate 40 mg daily; assay type: in vivo, human
Description: All results obtained from the data are compared against the results provided by data amassed from a pool of about 200 patients with the same disorder. If, of these 200 patients, 55 experience encouraging results (along with the current patient) they are continued on 40 mg daily treatment. If, of these 55 patients, 5 are lost to follow-up, with 50 remaining for prospective evaluation, the physician continues the patient on 40 mg methylphenidate daily based solely on the isolated SPAS single-patient drug trial results. The physician then reviews the pooled data on the 50 patients. This will be done to understand under what circumstances this individual patient is likely to continue to show benefit from methylphenidate 40 mg treatment, and what conditions lead to treatment failure.
If for example, the pool of 50 patients who continue treatment have the following scores following the original SPAS testing:
All 50 patients are followed up by telephone interview monthly for nine months or more, and outcomes are prospectively documented.
The continuing validation process using pooled data, which is a subject of this invention, provides additional data essential to formulating a rational therapeutic decision.

[7] = patients with statistically altered sleep patterns, within two months
[8] = pool of 50 patients who continue treatment

`COc1ccc2c3c1O[C@H]1[C@@H](O)C=C[C@H]4[C@@H](C2)N(C)CC[C@@]341` [codeine] was tested, and the liking score ([1]; patient on codeine) was 3 out of 5, the “liking score difference vs placebo” value ([1]; statistically significant (Bayesian feedback)) was 2 units and the “patients who became addicted” value ([2]; Caucasian female patients 30 to 40 years with similar 0 unit difference) was 10 out of 1250. The “patients who became addicted” value ([2]; black male patients 40 to 50 years old with similar 2-unit difference, treated with codeine) was 25 out of 600, the “patients who became addicted” value ([2]; similar patients with 2 unit differences, within three months) was “Twenty” and the “patients who became addicted” value ([2]; similar patients with 3 unit differences) was 50 out of 110.
In the case of `COc1ccc(CCN(C)CCCC(C#N)(c2ccc(OC)c(OC)c2)C(C)C)cc1OC` (centres unmarked) [verapamil], the “mean systolic blood pressure increases” value [3] is reported as 3%, the sleepiness reported ([3]; six week trial, both drugs) is reported as “equal rates” and the mean diastolic pressure [3] is reported as “essentially stable”.
For `CN1CCCC1c1cccnc1` (centres unmarked) [nicotine], the liking score ([1]; on average, patient receiving nicotine) was 4 out of 5, the “liking score difference vs placebo” value ([1]; statistically significant) was 3 units and the “patients who are smokers” value ([2]; female Caucasian patients 15 to 17 years old with similar 3-unit difference) was 820 out of 975.
`CCOC(=O)N1CCC(=C2c3ccc(Cl)cc3CCc3cccnc32)CC1` [CL, loratidine] was tested, and the incidence of sedation ([4]; person) was 2 on a 3 point scale.
For `CC(C)NCC(O)COc1cccc2ccccc12` (centres unmarked) [propranolol], the “mean systolic blood pressure increases” value [3] was 3%, the sleepiness reported ([3]; human, in vivo) was “equal rates” and the mean diastolic pressure [3] was “essentially stable”.
In the case of `CN1C(=O)CN=C(c2ccccc2)c2cc(Cl)ccc21` [diazepam], the liking score ([1]; patient on diazepam) is reported as 4 out of 5, the “liking score difference vs placebo” value ([1]; not statistically significant) is reported as 0 units and the “level of addiction on follow-up of similar patients” value [2] is reported as “comparatively low level of addiction”.
In the case of `C=CCC1(C(C)CCC)C(=O)NC(=O)NC1=O` (centres unmarked) [secobarbital], the “difference in liking scores, diazepam vs secobarbital” value ([1]; same person, statistically significant difference) is reported as “greater addiction potential” and the “level of addiction on follow-up of similar patients” value [2] is reported as “high level of addiction”.
For `CN(C)CCC(c1ccc(Cl)cc1)c1ccccn1` (centres unmarked) [CM, chlorpheniramine maleate], the “patient's symptoms at reevaluation” value ([4]; 6 and 12 months post-initiation of CM treatment) was “well maintained”, the “similar patients well maintained during a year long follow-up” value ([4]; database patients placed on CM after single-patient trials) was 37 of the 40 and the incidence of sedation ([4]; person) was 2 on a 3 point scale. The “control of most bothersome symptom, sneezing” value ([4]; person, perennial allergic rhinitis) was “similarly and effectively controlled”.
For `COC(=O)C(c1ccccc1)C1CCCCN1` (centres unmarked) [methylphenidate], the “patient's attention span” value ([5]; 40 mg daily as 10 mg four times daily vs placebo, methylphenidate periods) was “improved substantially”, the sleep patterns ([5]; 40 mg daily, methylphenidate periods) was “statistically altered” and the teacher comments ([5]; methylphenidate dosing periods) was “corroborate improved attention span”. For the same compound, the “follow-up outcome, patients with no statistically altered sleep disturbances” value ([6]; monthly telephone interview for nine months or more, 40 mg daily) was “well maintained”, the “patients who experience encouraging results” value ([6]; of a pool of about 200 patients with the same disorder) was 55 and the “patients experiencing grand mal seizures” value [6, 7] was “two”. For the same compound, the “patients showing severe episodes of bizarre behaviors” value [6, 7] was 90%, the “Sleep Patterns: have been statistically altered” value [6, 8] was 50% have been statistically altered and the “Sleep Patterns: have not been statistically altered” value [6, 8] was 50% have not been statistically altered. For the same compound, the “Teacher Comments: corroborate improved attention span” value [6, 8] was 80% corroborate improved attention span, the “Teacher Comments: do not corroborate improved attention span” value [6, 8] was 20% do not corroborate improved attention span and the “Attention Span: have substantial improvement” value ([6]; pool of 50 patients who continue treatment, scores following original SPAS testing) was 100% have substantial improvement. For the same compound, the “follow-up outcome, patients with statistically altered sleep patterns” value ([6]; within two months, 40 mg daily) was “loss of symptom control”.

Source: US20020192159A1, “Single-patient drug trials used with accumulated database: flowchart” (priority 2001, published 2002)
